Where two headings read alike, the source gives them in different places.

Data set [1] deals with T1, mGlu6 (Rattus norvegicus, UniProt P35349).
T1 construct: expressed in transfected cells; host or cells: HEK293 (transient, electroporation)
The data set is described as follows: Inositol phosphate production in transfected HEK293 cells, mGlu6. It counts as cell-based. From the text: (§1) These receptors were transiently expressed in HEK-293 cells as previously described. Since group III mGlu receptors are not naturally coupled to phospholipase-C but rather inhibit adenylyl cyclase, receptors were co-transfected with a chimeric G-protein alpha subunit which is recognized by these receptors but effectively activates the phospholipase-C pathway. Thus, the functional assay consisted in measuring the total inositol phosphate production resulting from receptor activation (ref. 10, 11).
(§2) Cell culture and transfection. Pharmacological experiments were carried out using HEK293 cells. Cells were cultured in Dulbecco's modified Eagle's medium supplemented with 10% foetal calf serum (FCS) and antibiotics (Penicillin and Streptomycin, 100 U/mL final).
(§3) Cells were transiently transfected with rat clones of group-III mGlu receptors (mGlu4, mGlu6, mGlu7 and mGlu8) by electroporation as described elsewhere (ref. 6) and plated in 96-well microplates. The high affinity glutamate transporter EAAC1 was also co-transfected with the receptor in order to avoid any influence of glutamate released by the cells in the assay medium. […] Receptor activity was then determined by measurement of the IP production. […]

The subject of data set [2] is group I and II mGlu receptors. Put plainly: Selectivity versus group I and II mGlu receptors. It counts as cell-based.
Data set [3] has as its target T2, mGlu7 (Rattus norvegicus, UniProt P35400).
T2 construct: expressed in transfected cells; host or cells: HEK293 (transient, electroporation)
Put plainly: Inositol phosphate production in transfected HEK293 cells, mGlu7. It counts as cell-based.
Text: as §1, §2, §3

The target of data set [4] is mGlu4R (Homo sapiens, UniProt Q14833). The settings on record: read-out: EC50 as mGlu4R agonist; background statement; cited from earlier work.
Data set [5] deals with T3, mGlu8 (Rattus norvegicus, UniProt P70579).
T3 construct: expressed in transfected cells; host or cells: HEK293 (transient, electroporation)
T3 sequence (P70579 34-908): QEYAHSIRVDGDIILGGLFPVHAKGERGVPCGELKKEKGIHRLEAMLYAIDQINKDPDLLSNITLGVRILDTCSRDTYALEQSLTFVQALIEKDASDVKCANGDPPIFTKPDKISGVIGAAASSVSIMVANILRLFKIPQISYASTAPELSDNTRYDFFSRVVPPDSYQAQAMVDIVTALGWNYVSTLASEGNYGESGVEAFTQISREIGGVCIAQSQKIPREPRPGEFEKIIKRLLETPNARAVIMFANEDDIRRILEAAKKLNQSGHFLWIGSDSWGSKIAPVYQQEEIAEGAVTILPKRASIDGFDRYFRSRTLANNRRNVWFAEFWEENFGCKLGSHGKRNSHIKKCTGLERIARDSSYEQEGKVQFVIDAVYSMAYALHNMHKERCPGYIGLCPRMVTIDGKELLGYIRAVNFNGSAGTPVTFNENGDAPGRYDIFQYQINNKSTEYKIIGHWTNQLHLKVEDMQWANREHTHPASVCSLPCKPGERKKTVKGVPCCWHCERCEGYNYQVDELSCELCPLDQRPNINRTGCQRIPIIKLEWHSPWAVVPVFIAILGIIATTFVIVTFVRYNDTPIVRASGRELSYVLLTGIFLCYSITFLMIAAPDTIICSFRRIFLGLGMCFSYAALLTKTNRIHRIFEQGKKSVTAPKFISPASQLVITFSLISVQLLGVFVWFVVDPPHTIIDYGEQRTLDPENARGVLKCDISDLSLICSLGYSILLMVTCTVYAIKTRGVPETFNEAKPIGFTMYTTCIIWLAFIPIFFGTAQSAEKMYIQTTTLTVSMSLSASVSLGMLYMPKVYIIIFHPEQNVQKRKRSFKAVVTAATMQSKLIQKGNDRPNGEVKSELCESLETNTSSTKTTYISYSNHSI
It counts as cell-based.
Text: as §1, §2
(§4) Cells were transiently transfected with rat clones of group-III mGlu receptors (mGlu4, mGlu6, mGlu7 and mGlu8) by electroporation as described elsewhere (ref. 6) and plated in 96-well microplates. The high affinity glutamate transporter EAAC1 was also co-transfected with the receptor in order to avoid any influence of glutamate released by the cells in the assay medium. Since group-III mGluRs activates naturally Gi/o-proteins which modulate the adenylyl-cyclase pathway, these receptors were co-transfected with a chimeric G-protein which is recognized by these receptors but couples to the phospholipase-C pathway, thus leading to inositol phosphate (IP) production following receptor activation (ref. 7). Receptor activity was then determined by measurement of the IP production.
(§5) Functional assay. Inositol phosphate determination experiments in 96-well microplates were performed as already described (ref. 15). Briefly, 6 h following transfection, cell medium was removed and replaced by fresh medium devoid of glutamate, not complemented with FCS, and that contained ^3H-myoinositol. Cells were incubated overnight in this medium. The following day, cells were rinsed and ambient glutamate degraded by incubation in presence of GPT. Cells were stimulated by agonist for 30 min then the medium was removed and cells incubated for 1 h with cold 0.1 M formic acid which induced cell lysis. The ^3H-IP produced following receptor stimulation were recovered by ion exchange chromatography using a Dowex resin (Biorad). […] All points are realized in triplicate.

Data set [6] deals with T4, mGlu4 (Rattus norvegicus, UniProt P31423).
T4 construct: expressed in transfected cells; host or cells: HEK293 (transient, electroporation)
T4 sequence (P31423 33-912): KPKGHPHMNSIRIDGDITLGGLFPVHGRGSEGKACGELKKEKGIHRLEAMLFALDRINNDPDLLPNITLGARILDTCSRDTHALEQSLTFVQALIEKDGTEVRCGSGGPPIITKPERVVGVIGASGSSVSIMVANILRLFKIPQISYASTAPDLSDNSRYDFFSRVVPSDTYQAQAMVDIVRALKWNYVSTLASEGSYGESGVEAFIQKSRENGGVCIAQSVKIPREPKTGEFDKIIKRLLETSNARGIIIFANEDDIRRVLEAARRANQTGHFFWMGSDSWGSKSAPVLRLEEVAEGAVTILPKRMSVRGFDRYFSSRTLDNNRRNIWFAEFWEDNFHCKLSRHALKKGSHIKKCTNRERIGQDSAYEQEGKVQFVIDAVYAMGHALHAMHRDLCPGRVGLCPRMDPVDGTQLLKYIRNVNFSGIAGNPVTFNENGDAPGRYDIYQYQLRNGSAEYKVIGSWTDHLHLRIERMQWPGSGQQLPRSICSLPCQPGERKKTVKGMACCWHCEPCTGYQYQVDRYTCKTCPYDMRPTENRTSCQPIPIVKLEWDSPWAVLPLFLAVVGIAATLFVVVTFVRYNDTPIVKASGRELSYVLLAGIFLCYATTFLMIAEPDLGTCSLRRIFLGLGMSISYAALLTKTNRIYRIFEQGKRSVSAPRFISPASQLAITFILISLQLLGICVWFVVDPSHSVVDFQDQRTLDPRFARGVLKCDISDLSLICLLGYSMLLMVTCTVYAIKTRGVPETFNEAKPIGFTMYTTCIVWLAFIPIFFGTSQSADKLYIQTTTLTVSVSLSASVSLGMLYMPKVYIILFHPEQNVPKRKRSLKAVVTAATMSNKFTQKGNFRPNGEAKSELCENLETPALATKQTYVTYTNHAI
It counts as cell-based.
Text: as §1, §2, §4, §5

The conditions of data set [7]: 31P NMR chemical shift versus pH, 27° C.
Description: In order to compare them, the pKa values of these amino acids were evaluated. […] Indicated pKa3 values were calculated by non-linear regression analysis using GraphPad Prism program. In addition, the ^31P NMR chemical shifts of 1 and 4 are sensitive to the ionization state, thus titration curves may be obtained from their pH dependence (ref. 7-9) (FIG. 1B). […] The pKa1 and pKa2 values are too close to be determined from the titration curves, however pKa3 and pKa4 are easily measured. […]
Each ^31P NMR spectrum was acquired at 27° C. with external H3PO4 (95%) reference at 0 ppm (sealed capillary). […] A total of 27 spectra (1) or 23 spectra (4) were recorded over a pH range of 0.50-12.50 (1) or 0.51-12.56 (4). The P NMR chemical shifts of the dianionic and monoanionic forms of the (thio)phosphonate groups were plotted against measured pH. All pKa values were calculated by non-linear regression analysis using the GraphPad Prism program (GraphPad Software Inc., San Diego Calif.) and the equation pH=pKa−log[(δa−δ)/(δ−δb)] where δ is the ^31P NMR chemical shift at varying pH, δa and δb the ^31P NMR chemical shifts with titrating group in fully acidic or basic form respectively.
Data set [8] deals with mGlu2 receptor (Homo sapiens, UniProt Q14416). The settings on record: described in the literature; cited from earlier work.
Sequence of mGlu2 receptor (Q14416 19-872): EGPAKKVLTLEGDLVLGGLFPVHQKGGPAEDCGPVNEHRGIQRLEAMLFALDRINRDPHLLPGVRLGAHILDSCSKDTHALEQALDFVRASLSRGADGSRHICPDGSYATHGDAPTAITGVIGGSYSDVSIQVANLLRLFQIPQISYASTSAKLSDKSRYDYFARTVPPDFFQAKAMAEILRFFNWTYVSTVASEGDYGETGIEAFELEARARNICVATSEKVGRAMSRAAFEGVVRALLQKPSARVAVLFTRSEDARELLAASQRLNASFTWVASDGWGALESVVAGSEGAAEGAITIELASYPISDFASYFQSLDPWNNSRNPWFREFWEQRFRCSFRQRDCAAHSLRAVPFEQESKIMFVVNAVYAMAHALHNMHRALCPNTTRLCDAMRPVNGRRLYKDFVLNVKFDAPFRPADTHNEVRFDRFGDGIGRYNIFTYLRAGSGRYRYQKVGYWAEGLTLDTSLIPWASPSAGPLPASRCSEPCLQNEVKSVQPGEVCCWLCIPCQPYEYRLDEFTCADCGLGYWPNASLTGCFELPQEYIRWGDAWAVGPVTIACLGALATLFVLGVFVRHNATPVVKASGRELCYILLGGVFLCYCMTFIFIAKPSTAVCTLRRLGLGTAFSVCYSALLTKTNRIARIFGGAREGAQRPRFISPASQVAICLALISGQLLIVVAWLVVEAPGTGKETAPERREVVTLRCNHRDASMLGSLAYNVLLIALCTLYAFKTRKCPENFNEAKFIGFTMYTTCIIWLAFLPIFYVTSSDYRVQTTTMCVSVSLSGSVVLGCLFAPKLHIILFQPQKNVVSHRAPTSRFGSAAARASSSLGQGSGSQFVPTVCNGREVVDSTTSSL
Data set [9] has as its system mGlu1/5 receptors. The data set is described as follows: Effect at mGlu1/5 receptors. It counts as cell-based.
For data set [10], the system named is group III mGlu receptors. The conditions noted are these: cited from earlier work.
For data set [11], the system named is group III mGlu receptors. Put plainly: Agonist activity across all group III mGlu receptor subtypes (summary). It counts as cell-based, rat.
Text: as §1, §4
Functional assay. […]

[12] abbreviates: agonist activity, IP production, HEK-293, mean ± SEM (n).

T1 sequence (P35349 24-871): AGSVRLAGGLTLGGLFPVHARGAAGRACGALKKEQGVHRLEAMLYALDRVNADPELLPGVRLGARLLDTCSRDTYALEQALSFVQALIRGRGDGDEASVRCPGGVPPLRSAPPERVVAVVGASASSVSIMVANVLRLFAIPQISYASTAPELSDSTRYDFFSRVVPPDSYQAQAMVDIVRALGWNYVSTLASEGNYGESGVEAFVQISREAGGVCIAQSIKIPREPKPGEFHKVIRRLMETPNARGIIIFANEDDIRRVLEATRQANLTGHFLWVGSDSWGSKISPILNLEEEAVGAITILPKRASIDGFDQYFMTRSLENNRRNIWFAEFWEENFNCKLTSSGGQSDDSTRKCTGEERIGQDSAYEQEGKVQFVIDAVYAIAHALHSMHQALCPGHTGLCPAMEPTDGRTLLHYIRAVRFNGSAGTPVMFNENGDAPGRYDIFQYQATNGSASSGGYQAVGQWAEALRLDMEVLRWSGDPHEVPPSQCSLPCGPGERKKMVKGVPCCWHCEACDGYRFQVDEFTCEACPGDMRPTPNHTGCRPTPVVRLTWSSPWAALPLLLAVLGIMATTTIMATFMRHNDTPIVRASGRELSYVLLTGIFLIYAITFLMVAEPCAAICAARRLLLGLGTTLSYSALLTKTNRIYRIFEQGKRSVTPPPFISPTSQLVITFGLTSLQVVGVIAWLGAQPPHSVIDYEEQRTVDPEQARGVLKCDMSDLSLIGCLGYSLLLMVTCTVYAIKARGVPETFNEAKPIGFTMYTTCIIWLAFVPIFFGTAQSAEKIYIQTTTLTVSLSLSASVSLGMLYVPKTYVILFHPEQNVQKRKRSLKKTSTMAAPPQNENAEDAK
T2 sequence (P35400 35-915): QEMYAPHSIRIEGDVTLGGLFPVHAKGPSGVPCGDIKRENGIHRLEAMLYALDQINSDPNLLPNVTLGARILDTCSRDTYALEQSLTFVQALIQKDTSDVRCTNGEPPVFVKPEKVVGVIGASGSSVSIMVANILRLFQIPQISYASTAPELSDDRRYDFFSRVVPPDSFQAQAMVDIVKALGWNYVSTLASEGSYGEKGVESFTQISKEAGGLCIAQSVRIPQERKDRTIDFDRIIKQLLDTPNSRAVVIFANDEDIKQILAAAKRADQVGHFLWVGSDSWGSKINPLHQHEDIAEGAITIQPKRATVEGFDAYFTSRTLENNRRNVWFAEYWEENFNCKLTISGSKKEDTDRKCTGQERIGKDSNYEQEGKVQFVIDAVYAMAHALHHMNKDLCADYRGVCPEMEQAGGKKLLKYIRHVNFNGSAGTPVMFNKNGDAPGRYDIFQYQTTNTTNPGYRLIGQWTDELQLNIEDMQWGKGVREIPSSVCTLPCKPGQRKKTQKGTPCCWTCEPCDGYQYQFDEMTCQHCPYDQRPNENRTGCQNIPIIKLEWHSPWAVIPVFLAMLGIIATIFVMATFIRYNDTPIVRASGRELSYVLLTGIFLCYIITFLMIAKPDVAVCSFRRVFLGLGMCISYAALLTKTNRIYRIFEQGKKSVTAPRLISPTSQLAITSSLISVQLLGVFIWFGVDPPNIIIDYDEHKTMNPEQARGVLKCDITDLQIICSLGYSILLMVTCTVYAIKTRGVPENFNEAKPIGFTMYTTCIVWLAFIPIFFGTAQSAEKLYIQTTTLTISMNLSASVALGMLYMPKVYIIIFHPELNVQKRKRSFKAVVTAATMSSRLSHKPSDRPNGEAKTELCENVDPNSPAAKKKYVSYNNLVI

As a reminder, the EC50 is the midpoint of the concentration-response curve. Regarding `N[C@@H](CCP(=O)(O)O)C(=O)O` [L-AP4, L(+)-2-Amino-4-phosphonobutyric Acid], the EC50 in data set [1] (setting [12]) was 2080 ± 380 nM; in data set [3] (setting [12]), 440000 ± 120000 nM; in data set [4], 320 nM; in [5] (setting [12]) it was 128 ± 19 nM; in data set [6] (setting [12]), 80 ± 17 nM. Moreover, the “agonist or antagonist activity on group I and II mGlu receptors” value in data set [2] (at 100 μM) is given as “no agonist or antagonist activity”. The “experimental pKa3” value in [7] (second acidity of (thio)phosphonate) is 6.88. The “experimental pKa4” value in data set [7] (α-ammonium group) stood at 9.90. The “mGlu2 receptor antagonist activity” value in data set [8] was “modest mGlu2 receptor antagonist”. Further, in [9], the “effect at mGlu1/5 receptors” value is given as “no effect”.

For `N[C@@H](CCS(=O)(=O)O)C(=O)O` [L-homocysteic acid], in data set [10], the “activity compared to glutamate at group III mGlu receptors” value is “no enhanced activity compared to glutamate”.

As for `N[C@@H](CCP(O)(O)=S)C(=O)O` [L-thioAP4, L(+)-2-Amino-4-thiophosphonobutyric acid], the 50% effective concentration (EC50) in [1] came out at 730 nM; in [3], 197000 nM; in data set [5], 54 nM; in data set [6], 39 nM. Moreover, the “agonist or antagonist activity on group I and II mGlu receptors” value in data set [2] is “no agonist or antagonist activity”. Also, the “effect at mGlu1/5 receptors” value in data set [9] is reported as “no effect”. Moreover, in [11], the “selectivity among group III mGlu receptor subtypes” value is recorded as “not subtype selective”. Further, the “activity relative to L-AP4 (1)” value in [11] (on all subtypes, Student's paired T test P<0.05) is “about two fold”.

(Values after patent US20100137258A1, “THIOPHOSPHI(O)NIC ACID DERIVATIVES AND THEIR THERAPEUTICAL APPLICATIONS” (priority 2007, published 2010).)
